Here are results for two compounds from ChEMBL document CHEMBL1150853, “A new dehydrogeranylgeraniol antioxidant from Saururus cernuus that inhibits intracellular reactive oxygen species (ROS)-catalyzed oxidation within HL-60 cells” (J Nat Prod, 2001).

The test system of series [1] is HL-60. The series is described as follows: Antioxidant activity in human HL60 cells assessed as inhibition of endogenous hydrogen peroxide-catalyzed oxidation of 2',7'-dichlorodihydrofluorescein diacetate at 50 ug/mL by flow cytometry. The class given is functional, cell-based. Background: Flow cytometry measures light scatter and fluorescence of single cells or particles in a stream.

Series [2] has as its system HL-60. The experiment in a line: Antioxidant activity in phorbol 12-myristate 13-acetate-stimulated human HL60 cells assessed as inhibition of exogenous hydrogen peroxide-catalyzed oxidation of 2',7'-dichlorodihydrofluorescein diacetate at 50 ug/mL pretreated 30 mins before PMA challenge by flow cytometry. The class given is functional, cell-based.
Series [3] deals with Radical scavenging activity. The experiment in a line: Antioxidant activity assessed as DPPH radical scavenging activity after 30 mins by modified 2D TLC autographic assay. The class given is functional.
For series [4], the system named is HL-60. The experiment in a line: Cytotoxicity against human HL60 cells at 5 ug/mL after 4 hrs by XTT assay. The settings on record: hl-60, 4 h. In kind it is cell-based.
Series [5] relates to HL-60. The experiment in a line: Antioxidant activity in human HL60 cells assessed as inhibition of endogenous hydrogen peroxide-catalyzed oxidation of 2',7'-dichlorodihydrofluorescein diacetate at 5 ug/mL by flow cytometry. The class given is functional.
Series [6] deals with HL-60. The experiment in a line: Antioxidant activity in phorbol 12-myristate 13-acetate-stimulated human HL60 cells assessed as inhibition of exogenous hydrogen peroxide-catalyzed oxidation of 2',7'-dichlorodihydrofluorescein diacetate at 5 ug/mL pretreated 30 mins before PMA challenge by flow cytometry. In kind it is functional.
The next series relates to Colletotrichum fragariae. The experiment in a line: Antifungal activity against Colletotrichum fragariae at 100 nmol by 2D-TLC bioautography assay. In kind it is functional, organism-based.
Series [7] deals with Colletotrichum gloeosporioides. The experiment in a line: Antifungal activity against Colletotrichum gloeosporioides at 100 nmol by 2D-TLC bioautography assay. The class given is functional, organism-based.
The subject of the next series is Colletotrichum acutatum. The experiment in a line: Antifungal activity against Colletotrichum acutatum at 100 nmol by 2D-TLC bioautography assay. In kind it is functional, organism-based.

Calls of active or inactive are those of the source. No cut-off for these calls is given here.

What is called inhibition is the change of the read-out against control, counted positive when it falls. Take VITAMIN E: the inhibition entry in the series on HL-60 [1] was “inactive”. The inhibition with HL-60 [2] came to 32.4%.
On to `CC(C)=C/C=C/C(C)=C/CC/C(C)=C/CC/C(C)=C/CO`, for which the result (in series [3]; with Colletotrichum fragariae; in series [7]; in the series on Colletotrichum acutatum) was Active. In addition, the Activity entry in the series on HL-60 [4] is “Non-toxic”. The inhibition at 5 µg/mL with HL-60 [5] is 8%; in the series with HL-60 [6] it was 28%.
